Where two headings read alike, the source gives them in different places.
What was measured:
A2780 MCTSs = experiment: (Photo-)cytotoxicity on 3D multicellular tumour spheroids, resazurin assay; format: cell-based, human; conditions: for IC50: normoxic, one week of incubation
Method: A2780 spheroids (ca. 500 µm in diameter) were treated with increasing concentrations of the compounds and after 24 h of incubation, the medium was replaced with fresh medium, and the cells were either kept in the dark or irradiated for 1 h at 740 nm. Images of the spheroids were taken every 24 h for 3 days.
Additionally, the phototoxicity was tested via a fluorometric resazurin assay in A2780 MCTSs (Table 3). […] (Figure S29). […] This can be attributed to the different biological endpoints and time frames of the assays: spheroid diameter was monitored over 72 h, whereas resazurin measurements were performed after 7 days, potentially capturing delayed cytotoxic effects due to differences in drug cellular uptake.
4 h of incubation, the conversion of resazurin into resorufin was determined upon excitation at 540 nm and measurement of its emission at 590 nm using a Cytation 5 Imaging Reader from BioTek. The obtained data was analysed with the GraphPad Prism software
MCTS were cultured using ultra-low attachment 96 wells plates from Corning (Fisher Scientific 15329740). A2780 cells were seeded at a density of 1,500 cells per well in 100 μL of RPMI. Within 2-3 days, MCTSs have approximately 500 μm of diameter. The formation as well as integrity and diameter of the MCTSs were monitored by microscopy.
(Photo-)cytotoxicity on 3D multicellular tumor spheroids (MCTS)
After 2 days of growing at 37 °C in 5% CO2, the medium was removed, and MCTSs were treated by adding 100 μL of the medium in the well with increasing concentrations of compounds (Os-Pt-Cer, Os, Ceritinib, Oxaliplatin, cisplatin, and Ce6 as additional control). For untreated reference MCTSs, only half of the medium was added with fresh medium. After 24 hours, the MCTSs were divided into two identical groups. The first group was strictly kept in the dark. The second group was irradiated at 740 nm for 1 h (12.60 J·cm-2) using a LUMOS-BIO photoreactor (Atlas Photonics). After the irradiation, all groups were incubated additional 7 days. Thereafter, medium was replaced with 100 μL of fresh medium containing resazurin (0.2 mg/mL). After 24 h of incubation at 37 °C, 5% CO 2, plates were read using a SpectraMaxM2 Microplate Reader ( λexc = 540 nm; λread = 590 nm). Fluorescence data were normalised, and data were fitted using GraphPad Prism Software, and IC 50 was calculated by non - linear regression. Changes in the size and shape of MCTS were monitored every 24 h using Cytation 5 Imaging Reader from BioTek, objective x4. […]
Figure S29. Cell viability graphs after one week of incubation. Studied compounds were incubated for 24 h, thereafter the medium was renovated. For PDT, plates were irradiated at 740 nm for 1h using a LUMOS-BIO photoreactor (Atlas Photonics). For both PDT and regular cytotoxicity, cells were incubated for one week at 37 °C, 5 % CO2. The medium was renovated each two days. Then, the medium was replaced with 100 µL of fresh medium containing 0.2 mg/mL resazurin (Acros Organics). After 24 h of incubation, the fluorescence signal of the resazurin product was recorded (λexc = 540 nm; λem = 590 nm) using a Cytation 5 Cell Imaging Multi-Mode Reader (Biotek - Agilent).
(1 picture or pasted object on this page, not shown here)

A549 cells = experiment: (Photo-)cytotoxicity on 2D cell monolayers, resazurin assay; format: cell-based; conditions: for IC50: A549, normoxic, 4 h exposure
Method: The 2D cytotoxicity and phototoxicity profiles of Os‐Pt‐Cer and controls, were evaluated in a panel of cancerous cell lines, including A2780 (ovarian carcinoma), A549 (non‐small cell lung carcinoma), and MCA205 (murine fibrosarcoma), as well as a non‐cancerous retinal pigment epithelial cell line (RPE‐1). Cells were treated with the compounds (0.003–100 µM) for 4 h, either kept in the dark or irradiated at 670 nm (13.5 J cm^− ^2) (Table S4 and Figure S22) or 740 nm (12.6 J cm^− ^2) and viability was assessed 44 h post‐treatment. To verify robustness, the incubation was extended to 72 h. […]
Human ovarian cancer (A2780) cells and mouse fibrosarcoma cells (MCA205) were cultured in RPMI media. Retinal pigment epithelium (RPE -1) cells were cultured in DMEM/F -12 medium. Lung cancer cells (A549) were cultured in F -12K medium. These cell lines were complemented with 10% of fetal bovine serum, 100 U/mL penicillin -streptomycin mixture, and maintained in a humidified atmosphere […]
(Photo-)cytotoxicity on 2D cell monolayers
The cytotoxicity of the compounds was assessed by measuring cell viability using a resazurin assay.
The cells were seeded in triplicates in 96 well plates with a density of 10 4 cells per well in 100 μL of media. After 24 h, the medium was removed, and the cells were treated with increasing concentrations (0.003 → 100 µM) of the compounds diluted in cell media , achieving a total volume of 100 μL/well.
The cells were incubated with the compound for 4 h (final incubation time 48 h) or 24 h (final incubation time 72 h). After this time, the media was removed and replaced with 100 μL of fresh medium. For the phototoxicity studies, the cells were exposed to light with an Atlas Photonics LUMOS BIO irradiation system. Each well was constantly irradiated at 670 nm (60 min, 13.50 J·cm-2) or 740 nm (60 min, 12.60 J·cm-2). During the irradiation, the temperature of the plate was maintained at 37 °C. The cells were grown in the incubator for an additional 44 or 48 h, respectively. For the determination of the dark cytotoxicity, the cells were not irradiated and after the medium exchange directly incubated for 44 h.
After this time, the medium was replaced with fresh medium containing resazurin (0.2 mg/mL). After […]
4 h of incubation, the conversion of resazurin into resorufin was determined upon excitation at 540 nm and measurement of its emission at 590 nm using a Cytation 5 Imaging Reader from BioTek. The obtained data was analysed with the GraphPad Prism software […]
After 24 h of incubation at 37 °C, 5% CO 2, plates were read using a SpectraMaxM2 Microplate Reader ( λexc = 540 nm; λread = 590 nm). Fluorescence data were normalised, and data were fitted using GraphPad Prism Software, and IC 50 was calculated by non - linear regression. Changes in the size and shape of MCTS were monitored every 24 h using Cytation 5 Imaging Reader from BioTek, objective x4.
Intracellular distribution by confocal fluorescence microscopy
10^4 cells/well (A2780 cells) were seeded in complete medium (RPMI) in µ -slide 8 well (Ibidi) (100 µl/well) and left for 24 h to attach to the bottom. Then, the culture medium was removed , and 100 µl of solution of the corresponding complexes (5 µM) was added. The complexes were incubated with the cells for 4 hours. Thereafter, the medium was removed and replaced by RPMI without phenol red , and Hoechst and MitoTracker Green were added at a final concentration of 1 µg/mL. They were incubated with the cells for 30 min in the dark at 37 °C. Images were collected in a sequential mode in a Leica TCS SP8 confocal microscope with a 60x oil immers ion objective, a line average of 4, and a format of […]
(MTG)→ 500 -550nm, and 488 nm (complexes)→ 680 -730 nm. The confocal pinhole was 1 Airy unit.
Images were analysed with LAS X Flim FCS software.
Intracellular distribution by ICP -MS

[1] = Homo sapiens, 168 h, dark, read-out: IC50 Dark
[2] = Homo sapiens, dark, total 48 h incubation, read-out: IC50 Dark

Structure (SMILES)	IC50 (A2780 MCTSs; [1])	IC50 (A549 cells; [2])	PI (A2780 MCTSs)	IC50 (A2780 MCTSs; Homo sapiens, 740 nm (60 min, 12.60 J·cm^−2), read-out: IC50 Irrad. 740 nm)	PI (IC50 dark/IC50 irradiation 740 nm) (A549 cells; A549)	IC50 (A549 cells; Homo sapiens, 740 nm (60 min, 12.60 J·cm^−2), total 48 h, read-out: IC50 Irrad. 740 nm)	IC50 (A2780 MCTSs; dark, read-out: IC50 Dark)	IC50 (A549 cells; dark, total 48 h incubation, read-out: IC50 Dark)
Cc1cc(Nc2ncc(Cl)c(Nc3ccccc3S(=O)(=O)C(C)C)n2)c(OC(C)C)cc1C1CCNCC1 [Ceritinib]	> 5 µM	3.8 ± 0.09 µM	–	–	–	–	–	–
C=Cc1c(C)c2cc3nc(c(CC(=O)O)c4[nH]c(cc5nc(cc1[nH]2)C(C)=C5CC)c(C)c4C(=O)O)[C@@H](CCC(=O)O)[C@@H]3C [Ce6, Chlorin e6]	> 5 µM	> 100 µM	≥7	0.7 ± 0.4 µM	≥17	5.86 ± 0.82 µM	–	–
O=C1[O][Pt]2([NH][C@@H]3CCCC[C@H]3[NH]2)[O]C1=O [Oxaliplatin]	–	–	–	–	–	–	0.5 ± 0.7 µM	2.8 ± 0.13 µM
